Reference: US11951108B2, “Combination therapy for treating cancer” (Epizyme, Inc., priority 2016, dated 2024)
Each block holds one compound with its values, some of them ahead of it.

Tests used:
MDA-MB-175VII = assay: In vitro combination study, breast cancer cell line MDA-MB-175VII
OVISE [1] = test system: OVISE
BT-20 = assay: In vitro combination study, breast cancer cell line BT-20
SNU840 [2] = test system: SNU840
OVMANA [3] = test system: OVMANA
OVSAHO = assay: In vitro combination study, ovarian cancer cell line OVSAHO
ES-2 = assay: In vitro combination study, ovarian cancer cell line ES-2
HCC1937 = assay: In vitro combination study, breast cancer cell line HCC1937
MDA-MB-231 = assay: In vitro combination study, breast cancer cell line MDA-MB-231
SUM52PE = assay: In vitro combination study, breast cancer cell line SUM52PE
ZR-75-1 [4] = test system: ZR-75-1
HCC1143 [5] = test system: HCC1143
DU4475 [6] = test system: DU4475
HCC1187 = assay: In vitro combination study, breast cancer cell line HCC1187
TOV112D [7] = test system: TOV112D
COV362 = assay: In vitro combination study, ovarian cancer cell line COV362
COV504 [8] = test system: COV504
COV644* = assay: In vitro combination study, ovarian cancer cell line COV644
BT474 = assay: In vitro combination study, breast cancer cell line BT474
HCC1143 [9] = assay: In vitro combination study, breast cancer cell line HCC1143; conditions: 10 μM
KURAMOCHI = assay: In vitro combination study, ovarian cancer cell line KURAMOCHI; conditions: read-out: Tazemetostat % inhibition at 20 μM
SK-BR-3 = assay: In vitro combination study, breast cancer cell line SK-BR-3; assay type: cell-based
OVCAR-3 = assay: In vitro combination study, ovarian cancer cell line OVCAR-3; assay type: cell-based; conditions: Homo sapiens, read-out: Tazemetostat % inhibition at 20 μM
MCF-7 = assay: In vitro combination study, breast cancer cell line MCF-7; assay type: cell-based
JH)S-4 = assay: In vitro combination study, ovarian cancer cell line JH)S-4; conditions: 20 μM
COV434 = assay: cells; conditions: COV434, read-out: Tazemetostat % inhibition at 20 μM
HCC1806 = assay: In vitro combination study, breast cancer cell line HCC1806; assay type: cell-based
HCC1569 = assay: In vitro combination study, breast cancer cell line HCC1569
ZR-75-1 [10] = assay: In vitro combination study, breast cancer cell line ZR-75-1
BT549 = assay: In vitro combination study, breast cancer cell line BT549; conditions: 10 μM
MDA-MB-361 = assay: In vitro combination study, breast cancer cell line MDA-MB-361; assay type: cell-based
HCC1954 = assay: In vitro combination study, breast cancer cell line HCC1954; assay type: cell-based
CAMA-1 = assay: In vitro combination study, breast cancer cell line CAMA-1; assay type: cell-based; conditions: 10 μM
MDA-MB-436 = assay: In vitro combination study, breast cancer cell line MDA-MB-436; assay type: cell-based
TOV21G = assay: In vitro combination study, ovarian cancer cell line TOV21G; assay type: cell-based; conditions: Homo sapiens, read-out: Tazemetostat % inhibition at 20 μM, 20 μM
OV-90 = assay: In vitro combination study, ovarian cancer cell line OV-90; conditions: Homo sapiens, OV-90, read-out: Tazemetostat % inhibition at 20 μM
OVMANA [11] = assay: In vitro combination study, ovarian cancer cell line OVMANA; conditions: read-out: Tazemetostat % inhibition at 20 μM
OAW42 = assay: In vitro combination study, ovarian cancer cell line OAW42; conditions: Homo sapiens, OAW-42, read-out: Tazemetostat % inhibition at 20 μM
COV504 [12] = assay: cells; conditions: COV504, read-out: Tazemetostat % inhibition at 20 μM
HCC1419 = assay: In vitro combination study, breast cancer cell line HCC1419; conditions: 10 μM
SUM159PT = assay: In vitro combination study, breast cancer cell line SUM159PT; conditions: 10 μM
OVISE [13] = assay: In vitro combination study, ovarian cancer cell line OVISE; conditions: read-out: Tazemetostat % inhibition at 20 μM
SKOV3 = assay: In vitro combination study, ovarian cancer cell line SKOV3; conditions: 20 μM
SNU840 [14] = assay: In vitro combination study, ovarian cancer cell line SNU840; conditions: SNU-840, read-out: Tazemetostat % inhibition at 20 μM
HCC38 = conditions: HCC38; 10 μM
MDA-MB-468 = assay: In vitro combination study, breast cancer cell line MDA-MB-468
TOV112D [15] = assay: In vitro combination study, ovarian cancer cell line TOV112D; conditions: 20 μM
SUM1315MO2 = assay: In vitro combination study, breast cancer cell line SUM1315MO2; assay type: cell-based
CAOV-3 = assay: In vitro combination study, ovarian cancer cell line CAOV-3; assay type: cell-based; conditions: Homo sapiens, read-out: Tazemetostat % inhibition at 20 μM, 20 μM
MDA-MB-453 = assay: In vitro combination study, breast cancer cell line MDA-MB-453; assay type: cell-based; conditions: 10 μM
RMUGS* = assay: In vitro combination study, ovarian cancer cell line RMUGS; conditions: 20 μM
DU4475 [16] = assay: In vitro combination study, breast cancer cell line DU4475; conditions: 10 μM
A2780 = assay: In vitro combination study, ovarian cancer cell line A2780; conditions: Homo sapiens, A2780, read-out: Tazemetostat % inhibition at 20 μM
TYK-NU = assay: In vitro combination study, ovarian cancer cell line TYK-NU; assay type: cell-based; conditions: read-out: Tazemetostat % inhibition at 20 μM
[17] = ER/PR +/+, HER2 +, 7 day pre-treatment + 6 day co-treatment
[18] = ER/PR −/−, HER2 −, 7 day pre-treatment + 6 day co-treatment

- Synergy or antagonism of second agent with tazemetostat (IC50 shift of second agent) (MDA-MB-175VII; [17]): A (Antagonism)
- Synergy or antagonism of second agent with tazemetostat (IC50 shift of second agent) (BT-20; [18]): C (Synergy > 2× IC50 shift)
- Synergy or antagonism of second agent with tazemetostat (IC50 shift of second agent) (OVSAHO; 4+3 model): A (Antagonism)
- Synergy or antagonism of second agent with tazemetostat (IC50 shift of second agent) (ES-2; 4+3 model): A (Antagonism)
- Synergy or antagonism of second agent with tazemetostat (IC50 shift of second agent) (HCC1937; ER/PR −/−, HER2 +, 7 day pre-treatment + 6 day co-treatment): A (Antagonism)
- Synergy or antagonism of second agent with tazemetostat (IC50 shift of second agent) (MDA-MB-231; [18]): A (Antagonism)
- Synergy or antagonism of second agent with tazemetostat (IC50 shift of second agent) (SUM52PE; [18]): A (Antagonism)
- Synergy or antagonism of second agent with tazemetostat (IC50 shift of second agent) (HCC1187; [18]): A (Antagonism)
- Synergy or antagonism of second agent with tazemetostat (IC50 shift of second agent) (COV362; COV362, 4+3 model): A (Antagonism)
- Synergy or antagonism of second agent with tazemetostat (IC50 shift of second agent) (COV644*; COV644*, 7+3 model): A (Antagonism)
- Synergy or antagonism of second agent with tazemetostat (IC50 shift of second agent) (BT474; [17]): A (Antagonism)
Compound: CN(Cc1cnc2nc(N)nc(N)c2n1)c1ccc(C(=O)N[C@@H](CCC(=O)O)C(=O)O)cc1 [Methotrexate]
- Synergy or antagonism of second agent with tazemetostat (IC50 shift of second agent) (OVISE [1]): A (key: B: Synergy > 4× IC50 shift; Synergy > 2× IC50 shift; No Effect; Antagonism; X: Not Tested)
- Synergy or antagonism of second agent with tazemetostat (IC50 shift of second agent) (SNU840 [2]): A (key: B: Synergy > 4× IC50 shift; Synergy > 2× IC50 shift; No Effect; Antagonism; X: Not Tested)
- Synergy or antagonism of second agent with tazemetostat (IC50 shift of second agent) (OVMANA [3]): A (key: B: Synergy > 4× IC50 shift; Synergy > 2× IC50 shift; No Effect; Antagonism; X: Not Tested)
- Synergy or antagonism of second agent with tazemetostat (IC50 shift of second agent) (ZR-75-1 [4]): A (key: B: Synergy > 4× IC50 shift; Synergy > 2× IC50 shift; No Effect; Antagonism; X: Not Tested)
- Synergy or antagonism of second agent with tazemetostat (IC50 shift of second agent) (HCC1143 [5]): A (key: B: Synergy > 4× IC50 shift; Synergy > 2× IC50 shift; No Effect; Antagonism; X: Not Tested)
- Synergy or antagonism of second agent with tazemetostat (IC50 shift of second agent) (DU4475 [6]): A (key: B: Synergy > 4× IC50 shift; Synergy > 2× IC50 shift; No Effect; Antagonism; X: Not Tested)
- Synergy or antagonism of second agent with tazemetostat (IC50 shift of second agent) (TOV112D [7]): A (key: B: Synergy > 4× IC50 shift; Synergy > 2× IC50 shift; No Effect; Antagonism; X: Not Tested)
- Synergy or antagonism of second agent with tazemetostat (IC50 shift of second agent) (COV504 [8]): A (key: B: Synergy > 4× IC50 shift; Synergy > 2× IC50 shift; No Effect; Antagonism; X: Not Tested)

Compound: CCN(c1cc(-c2ccc(CN3CCOCC3)cc2)cc(C(=O)NCc2c(C)cc(C)[nH]c2=O)c1C)C1CCOCC1 [Tazemetostat, tazemetostat]
- Tazemetostat sensitivity at 10 μM (%) (HCC1143 [9]): 0%
- inhibition at 20 µM (KURAMOCHI): 20%
- Tazemetostat sensitivity at 10 μM (%) (SK-BR-3): 70%
- Tazemetostat sensitivity at 10 μM (%) (MDA-MB-175VII; 10 μM): 10%
- Tazemetostat sensitivity at 10 μM (%) (HCC1395): 25%
- inhibition at 20 µM (OVCAR-3): 0%
- Tazemetostat sensitivity at 10 μM (%) (MCF-7): 50%
- Tazemetostat sensitivity at 10 μM (%) (HCC70): 35%
- Tazemetostat % inhibition at 20 μM (JH)S-4): −20%
- inhibition at 20 µM (COV434): 50%
- Tazemetostat sensitivity at 10 μM (%) (HCC1806): 40%
- Tazemetostat sensitivity at 10 μM (%) (HCC1569): 20%
- Tazemetostat sensitivity at 10 μM (%) (BT-20; 10 μM): 0%
- Tazemetostat sensitivity at 10 μM (%) (ZR-75-1 [10]): 40%
- Tazemetostat sensitivity at 10 μM (%) (HCC202): 0%
- Tazemetostat sensitivity at 10 μM (%) (BT549): 40%
- inhibition at 20 µM (OVSAHO; Homo sapiens, read-out: Tazemetostat % inhibition at 20 μM): 0%
- Tazemetostat % inhibition at 20 μM (ES-2; 20 μM): 0%
- Tazemetostat sensitivity at 10 μM (%) (MDA-MB-361): 10%
- Tazemetostat sensitivity at 10 μM (%) (HCC1937; 10 μM): 20%
- Tazemetostat sensitivity at 10 μM (%) (HCC1954): 0%
- Tazemetostat sensitivity at 10 μM (%) (CAMA-1): 30%
- Tazemetostat sensitivity at 10 μM (%) (MDA-MB-436): 10%
- Tazemetostat sensitivity at 10 μM (%) (MDA-MB-231; 10 μM): 0%
- Tazemetostat sensitivity at 10 μM (%) (SUM52PE; 10 μM): 50%
- inhibition at 20 µM (TOV21G): 40%
- inhibition at 20 µM (OV-90): 15%
- inhibition at 20 µM (OVMANA [11]): 20%
- inhibition at 20 µM (OAW42): 15%
- inhibition at 20 µM (COV504 [12]): 30%
- Tazemetostat sensitivity at 10 μM (%) (HCC1419): 0%
- Tazemetostat sensitivity at 10 μM (%) (HCC1187; 10 μM): 0%
- Tazemetostat sensitivity at 10 μM (%) (SUM159PT): 50%
- Tazemetostat sensitivity at 10 μM (%) (EFM-19): 20%
- inhibition at 20 µM (OVISE [13]): 0%
- Tazemetostat % inhibition at 20 μM (SKOV3): 15%
- inhibition at 20 µM (SNU840 [14]): 25%
- inhibition at 20 µM (COV362; COV362, read-out: Tazemetostat % inhibition at 20 μM): 0%
- Tazemetostat sensitivity at 10 μM (%) (HCC38): 20%
- Tazemetostat sensitivity at 10 μM (%) (MDA-MB-468): 30%
- Tazemetostat % inhibition at 20 μM (TOV112D [15]): 20%
- Tazemetostat sensitivity at 10 μM (%) (SUM1315MO2): 35%
- inhibition at 20 µM (CAOV-3): 0%
- Tazemetostat sensitivity at 10 μM (%) (MDA-MB-453): 40%
- Tazemetostat % inhibition at 20 μM (RMUGS*): −20%
- Tazemetostat sensitivity at 10 μM (%) (DU4475 [16]): 35%
- inhibition at 20 µM (A2780): 35%
- Tazemetostat sensitivity at 10 μM (%) (MDA-MB-157): 0%
- inhibition at 20 µM (COV644*; read-out: Tazemetostat % inhibition at 20 μM): 10%
- Tazemetostat sensitivity at 10 μM (%) (SUM149PT): 30%
- Tazemetostat sensitivity at 10 μM (%) (BT474; 10 μM): 0%
- inhibition at 20 µM (TYK-NU): 0%
